Results: patent US20180037568A1, “MODULATORS OF METHYL MODIFYING ENZYMES, COMPOSITIONS AND USES THEREOF” (Constellation Pharmaceuticals, Inc., priority 2015, published 2018)
Where two headings read alike, the source gives them in different places.

Columns and labels:
H3K27me3 mark = experiment: H3K27me3 Alpha Hela Assay (AlphaLISA); type: cell-based; conditions: Hela cells, read-out: EZH2 Cell H3K27me3 Alpha HeLa (EC50 K27me3)
Protocol: EC50 Measurements for Inhibitors in HeLa Cell Assays
H3K27me3 Alpha Hela Assay (AlphaLISA). Ten different doses of each test compound (in a series of 3-fold dilutions) were plated in duplicate 384-well tissue culture treated plates (Catalog #781080; Greiner Bio One; Monroe, N.C.). Hela cells grown in culture were trypsinized and counted using a Countess® cell counter (Catalog # C10281; Life Technologies, Grand Island, N.Y.). Cell were diluted to 67,000 cells per mL in 10% DMEM (Catalog #10569-010 Life Technologies, Grand Island, N.Y.) and 15 μL (1,000 cells) were plated into each well using the Biotek MicroFlo™ Select Dispenser (BioTek Instruments, Inc. Vermont, USA),) of the 384-well plate. Plates were incubated at 37° C./5% CO2 for 72 hrs. One of the duplicate plates was processed for HeLa assay and the other for viability.
To the plate processed for AlphaLISA was added 5 μL per well Cell-Histone Lysis buffer (1×) (Catalog # AL009F1 Perkin Elmer; Waltham, Mass.) and the plate was incubated at RT for 30 minutes on a plate shaker with low speed (Model#4625-Q Thermo Scientific; Waltham, Mass.). Then, 10 μL per well Histone Extraction buffer (catalog # AL009F2; Perkin Elmer; Waltham, Mass.) was added and the plate further incubated at RT for 20 min on plate shaker with low speed. To each well was then added 10 μL per well of a 5× mix of anti-K27me3 acceptor beads plus Biotinylated anti-Histone H3 (C-ter) Antibody (diluted to 3 nM final) (Catalog #AL118 Perkin Elmer; Waltham, Mass.). Dilution of the acceptor beads and then anti-Histone H3 was with 1× Histone Detection buffer (Catalog # AL009F3 Perkin Elmer; Waltham, Mass.) which was produced diluted from the 10× stock provided. The plate was sealed with an aluminum plate sealer and incubated at 23° C. for 60 min. We then added 10 μL 5× solution of Streptavidin Donor beads (Catalog #6760002 Perkin Elmer; Waltham, Mass.) (20 μg/mL final in 1× Histone Detection Buffer), sealed the plate with Aluminum plate sealer and incubated at 23° C. for 30 min. The plates were then read using an EnVision-Alpha Reader (model #2104 Perkin Elmer; Waltham, Mass.).
Data from both assays was analyzed using Assay Assistant (Constellation Pharmaceuticals In-house product) and Activity Base (IDBS Ltd, Surrey, UK) template. Data files were imported to Assay Assistant and assay conditions were specified. A unique Analysis ID was created and the data files exported to Activity Base. An analysis template was created on Activity Base to measure dose-dependent inhibition of H3K27me3 mark and cell viability respectively. Readout of DMSO wells were used to normalize the data. Resulting curves were fitted using Activity base software Model 205 (IDBS Ltd, Surrey, UK). The data was checked for quality, validated and integrated in excel format using SARview (IDBS Ltd, Surrey, UK).

PRC2 containing wt EZH2 = target: T1, PRC2 containing wt EZH2 (Homo sapiens, UniProt Q15910); experiment: EZH2 pep BSA Brij 4.0 LowE (IC50): 3H-SAM incorporation into biotinylated H3 peptide; type: biochemical
T1 construct: made in house
Protocol: EZH2 Pep BSA Brij 4.0 LowE (IC50):
Compound potencies were assessed through incorporation of ^3H-SAM into a biotinylated H3 peptide. Specifically, PRC2 containing wt EZH2 (20 pM), (pentameric complexes prepared in-house) was pre-incubated with ^3H-SAM (0.9 μM), 2 μM H3K27me3 activating peptide (H2N-RKQLATKAAR(Kme3)SAPATGGVKKP-amide) and compounds (as 10 point duplicate dose response titrations in DMSO, final assay 0.8% DMSO (v/v)) for 120 min in 50 mM Tris (pH 8.5), 1 mM DTT, 0.07 mM Brij-35, 0.1% BSA, and 0.8% DMSO in a total volume of 12.5 μl. Reaction was initiated with biotinylated H3 substrate peptide (H2N-RKQLATKAAR(Kme1)SAPATGGVKKP-NTPEGBiot) as a 2 μM stock in 12.5 μl of buffer and allowed to react at room temperature for 5 h. Quenching was accomplished by addition of 20 μl of STOP solution (50 mM Tris (pH 8.5), 200 mM EDTA, 2 mM SAH). 35 μl of the quenched solution was transferred to Streptavidin Flashplates, incubated overnight, washed, and read in a TopCount Reader (Perkin Elmer). IC50s were calculated relative to fully active and no enzyme control wells using non-linear least square four parameter fits.

[1] = EZH2 pep BSA Brij 4.0 LowE (IC50), 20 pM PRC2 wt EZH2, 0.9 μM 3H-SAM, biotinylated H3 peptide substrate, 2 μM H3K27me3 activating peptide
[2] = read-out: EZH2 pep BSA Brij 4.0 LowE (IC50); 20 pM PRC2 wt EZH2, 0.9 μM 3H-SAM, biotinylated H3 peptide substrate, 2 μM H3K27me3 activating peptide
[3] = 20 pM PRC2 wt EZH2, 0.9 μM 3H-SAM, biotinylated H3 peptide substrate, 2 μM H3K27me3 activating peptide; read-out: EZH2 pep BSA Brij 4.0 LowE (IC50)

T1 sequence (Q15910 whole entry): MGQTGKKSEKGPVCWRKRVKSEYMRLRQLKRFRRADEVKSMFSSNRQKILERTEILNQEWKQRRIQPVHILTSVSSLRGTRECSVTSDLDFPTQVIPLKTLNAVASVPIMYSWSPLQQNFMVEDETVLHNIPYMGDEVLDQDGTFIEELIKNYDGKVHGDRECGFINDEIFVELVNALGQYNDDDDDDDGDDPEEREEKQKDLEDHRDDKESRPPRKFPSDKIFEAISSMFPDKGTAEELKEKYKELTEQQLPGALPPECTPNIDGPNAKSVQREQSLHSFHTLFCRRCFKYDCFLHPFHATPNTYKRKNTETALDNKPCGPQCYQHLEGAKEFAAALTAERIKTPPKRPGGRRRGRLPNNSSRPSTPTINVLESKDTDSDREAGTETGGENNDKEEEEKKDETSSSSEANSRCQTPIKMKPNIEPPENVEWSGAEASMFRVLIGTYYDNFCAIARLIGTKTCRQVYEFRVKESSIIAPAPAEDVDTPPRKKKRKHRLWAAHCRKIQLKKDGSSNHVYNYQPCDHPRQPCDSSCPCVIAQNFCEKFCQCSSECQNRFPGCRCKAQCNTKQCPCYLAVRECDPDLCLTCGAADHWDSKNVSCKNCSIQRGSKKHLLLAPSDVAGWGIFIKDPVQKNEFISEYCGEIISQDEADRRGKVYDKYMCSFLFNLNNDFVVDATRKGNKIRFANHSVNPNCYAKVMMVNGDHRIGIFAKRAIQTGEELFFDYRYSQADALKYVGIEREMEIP
T1 sequence (O75530 whole entry partner): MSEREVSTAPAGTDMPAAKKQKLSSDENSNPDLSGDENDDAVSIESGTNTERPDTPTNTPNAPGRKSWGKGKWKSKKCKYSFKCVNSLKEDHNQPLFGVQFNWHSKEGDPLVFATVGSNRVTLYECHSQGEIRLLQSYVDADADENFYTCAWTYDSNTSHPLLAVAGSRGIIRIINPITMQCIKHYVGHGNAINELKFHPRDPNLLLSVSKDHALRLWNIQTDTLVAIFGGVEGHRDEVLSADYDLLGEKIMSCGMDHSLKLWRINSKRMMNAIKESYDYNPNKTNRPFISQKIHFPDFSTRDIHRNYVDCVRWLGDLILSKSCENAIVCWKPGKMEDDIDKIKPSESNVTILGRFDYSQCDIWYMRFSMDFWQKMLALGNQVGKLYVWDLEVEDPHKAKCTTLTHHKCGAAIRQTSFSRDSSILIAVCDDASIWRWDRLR
T1 sequence (Q15022 whole entry partner): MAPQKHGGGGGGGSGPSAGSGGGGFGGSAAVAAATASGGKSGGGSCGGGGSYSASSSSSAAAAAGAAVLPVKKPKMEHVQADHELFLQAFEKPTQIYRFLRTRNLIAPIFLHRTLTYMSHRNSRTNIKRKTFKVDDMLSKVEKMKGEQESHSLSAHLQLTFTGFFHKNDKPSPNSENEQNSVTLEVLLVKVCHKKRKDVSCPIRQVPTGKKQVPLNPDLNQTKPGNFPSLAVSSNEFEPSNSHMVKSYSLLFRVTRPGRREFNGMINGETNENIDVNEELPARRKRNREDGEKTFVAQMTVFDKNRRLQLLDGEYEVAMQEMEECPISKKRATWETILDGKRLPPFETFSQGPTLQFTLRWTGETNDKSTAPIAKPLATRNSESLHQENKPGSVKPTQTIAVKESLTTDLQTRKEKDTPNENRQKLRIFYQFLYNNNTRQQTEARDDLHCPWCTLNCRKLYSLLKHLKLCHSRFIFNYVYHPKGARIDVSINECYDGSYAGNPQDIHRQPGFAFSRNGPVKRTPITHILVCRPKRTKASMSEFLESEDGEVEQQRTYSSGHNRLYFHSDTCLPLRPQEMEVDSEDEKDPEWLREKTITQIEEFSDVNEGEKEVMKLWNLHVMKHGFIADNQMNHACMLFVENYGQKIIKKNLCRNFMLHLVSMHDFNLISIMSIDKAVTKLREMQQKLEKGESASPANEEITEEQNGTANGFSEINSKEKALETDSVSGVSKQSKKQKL
T1 sequence (Q09028 whole entry partner): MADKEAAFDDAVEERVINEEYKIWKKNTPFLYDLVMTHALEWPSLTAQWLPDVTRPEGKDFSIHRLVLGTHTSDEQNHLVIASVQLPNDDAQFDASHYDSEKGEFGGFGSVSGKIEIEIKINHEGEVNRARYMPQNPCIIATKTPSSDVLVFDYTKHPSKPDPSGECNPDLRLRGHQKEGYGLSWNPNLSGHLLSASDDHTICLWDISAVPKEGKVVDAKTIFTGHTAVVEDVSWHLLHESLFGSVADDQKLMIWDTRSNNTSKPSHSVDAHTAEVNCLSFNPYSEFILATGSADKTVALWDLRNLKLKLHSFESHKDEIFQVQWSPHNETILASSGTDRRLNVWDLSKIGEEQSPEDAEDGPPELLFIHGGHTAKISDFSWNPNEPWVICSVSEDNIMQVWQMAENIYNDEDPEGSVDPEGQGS
T1 sequence (Q6ZN18 whole entry partner): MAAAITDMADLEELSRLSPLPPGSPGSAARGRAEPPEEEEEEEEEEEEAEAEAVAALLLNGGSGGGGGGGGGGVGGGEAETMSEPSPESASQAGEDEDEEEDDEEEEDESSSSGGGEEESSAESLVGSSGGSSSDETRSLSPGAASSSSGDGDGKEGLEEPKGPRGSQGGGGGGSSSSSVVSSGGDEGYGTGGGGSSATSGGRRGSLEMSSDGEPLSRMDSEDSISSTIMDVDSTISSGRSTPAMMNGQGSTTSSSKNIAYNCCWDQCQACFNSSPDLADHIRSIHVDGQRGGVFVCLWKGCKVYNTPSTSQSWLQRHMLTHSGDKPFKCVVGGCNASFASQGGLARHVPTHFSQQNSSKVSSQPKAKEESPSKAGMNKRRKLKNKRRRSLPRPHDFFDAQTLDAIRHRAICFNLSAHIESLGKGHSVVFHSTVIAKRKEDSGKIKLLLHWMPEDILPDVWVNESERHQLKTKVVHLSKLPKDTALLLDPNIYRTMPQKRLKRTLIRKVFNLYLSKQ

SMILES	IC50 (PRC2 containing wt EZH2; [1])	IC50 (PRC2 containing wt EZH2; [3])	further results
COc1cc(C)[nH]c(=O)c1CNC(=O)c1c(C)n(C(C)C2CCN(C)CC2C(F)(F)F)c2ccccc12 (single isomer, unassigned) [Compound 27, N-((4-methoxy-6-methyl-2-oxo-1,2-dihydropyridin-3-yl)methyl)-2-methyl-1-(1-(1-methyl-3-(trifluoromethyl)piperidin-4-yl)ethyl)-1H-indole-3-carboxamide]	100 to 1000 nM	–	EC50 (H3K27me3 mark; Homo sapiens, HeLa, 72 h): > 2000 nM
COc1cc(C)[nH]c(=O)c1CNC(=O)c1c(C)n(C(C)C2CCNC(CC(F)(F)F)C2)c2ccccc12 (centres unmarked) [Compound 88]	< 100 nM	–	EC50 (H3K27me3 mark; 72 hrs): > 2000 nM
Cc1cc(C)c(CNC(=O)c2c(C)n(C(C)C3CCN(C)C(C(F)(F)F)C3)c3ccccc23)c(=O)[nH]1 (single isomer, unassigned) [Compound 25, N-((4,6-dimethyl-2-oxo-1,2-dihydropyridin-3-yl)methyl)-2-methyl-1-(1-(1-methyl-2-(trifluoromethyl)piperidin-4-yl)ethyl)-1H-indole-3-carboxamide]	< 100 nM	–	EC50 (H3K27me3 mark; 72 hrs): > 2000 nM
COc1cc(C)[nH]c(=O)c1CNC(=O)c1c(C)n(C(C)C2CCN(C)C(c3cccc(C(=O)O)c3)C2)c2ccccc12 (centres unmarked) [Compound 92]	–	–	EC50 (H3K27me3 mark; 72 hrs): 400 to 2000 nM; IC50 (PRC2 containing wt EZH2; [2]): < 100 nM
CCC1CC(C(C)n2c(C)c(C(=O)NCc3c(C)cc(C)[nH]c3=O)c3ccccc32)CCN1CC(F)F (centres unmarked) [Compound 68]	–	–	EC50 (H3K27me3 mark; 72 hrs): > 2000 nM; IC50 (PRC2 containing wt EZH2; [2]): < 100 nM
CCS(=O)(=O)N1CCC(C(C)n2c(C)c(C(=O)NCc3c(OC)cc(C)[nH]c3=O)c3ccccc32)CC1C (centres unmarked) [Compound 93]	100 to 1000 nM	–	–
COc1cc(C)[nH]c(=O)c1CNC(=O)c1c(C)n(C(C)C2CCNC(c3cccc(C(F)(F)F)c3)C2)c2ccccc12 (centres unmarked) [Compound 76]	–	< 100 nM	–
COc1cc(C)[nH]c(=O)c1CNC(=O)c1c(C)n(C(C)C2CCNC(CC(F)(F)F)C2)c2ccccc12 (centres unmarked) [Compound 87]	100 to 1000 nM	–	–
COc1cc(C)[nH]c(=O)c1CNC(=O)c1c(C)n(C(C)C2CCN(C(C)=O)C(CC(F)(F)F)C2)c2ccccc12 (centres unmarked) [Compound 75]	–	< 100 nM	–
COc1cc(C)[nH]c(=O)c1CNC(=O)c1c(C)n(C(C)C2CCN(C)C(c3cccc(F)c3)C2)c2ccccc12 (centres unmarked) [Compound 57]	–	< 100 nM	–
COc1cc(C)[nH]c(=O)c1CNC(=O)c1c(C)n(C(C)C2CCNC(c3cccc(C(F)(F)F)c3)C2)c2ccccc12 (centres unmarked) [Compound 77]	–	< 100 nM	–
COc1cc(C)[nH]c(=O)c1CNC(=O)c1c(C)n(C(C)C2CCNC(c3cccc(F)c3)C2)c2ccccc12 (centres unmarked) [Compound 65]	–	< 100 nM	–
COc1cc(C)[nH]c(=O)c1CNC(=O)c1c(C)n(C(C)C2CCN(C(C)=O)C(C)C2)c2ccccc12 (centres unmarked) [Compound 78]	–	< 100 nM	–
Cc1cc(C)c(CNC(=O)c2c(C)n(C(C)C3CCNC(c4cccc(F)c4)C3)c3ccccc23)c(=O)[nH]1 (centres unmarked) [Compound 53]	–	< 100 nM	–
Cc1cc(C)c(CNC(=O)c2c(C)n(C(C)C3CCN(CC(C)(F)F)C(C)C3)c3ccccc23)c(=O)[nH]1 (centres unmarked) [Compound 58]	< 100 nM	–	–
CCC1CC(C(C)n2c(C)c(C(=O)NCc3c(OC)cc(C)[nH]c3=O)c3ccccc32)CCN1CC(F)F (centres unmarked) [Compound 59]	–	–	IC50 (PRC2 containing wt EZH2; [2]): < 100 nM
COC(=O)N1CCC(C(C)n2c(C)c(C(=O)NCc3c(OC)cc(C)[nH]c3=O)c3ccccc32)CC1C (centres unmarked) [Compound 82]	–	100 to 1000 nM	–
Cc1cc(C)c(CNC(=O)c2c(C)n(C(C)C3CCN(CC(C)(F)F)C(C)C3)c3ccccc23)c(=O)[nH]1 (centres unmarked) [Compound 74]	< 100 nM	–	–
COc1cc(C)[nH]c(=O)c1CNC(=O)c1c(C)n(C(C)C2CCNC(c3ccccc3F)C2)c2ccccc12 (centres unmarked) [Compound 50]	< 100 nM	–	–
CCC1CC(C(C)n2c(C)c(C(=O)NCc3c(OC)cc(C)[nH]c3=O)c3ccccc32)CCN1CC(F)F (centres unmarked) [Compound 62]	–	–	IC50 (PRC2 containing wt EZH2; [2]): < 100 nM

SMILES	IC50 (PRC2 containing wt EZH2; [1])	IC50 (PRC2 containing wt EZH2; [3])	further results
Cc1cc(C)c(CNC(=O)c2c(C)n(C(C)C3CCNC(c4cccc(F)c4)C3)c3ccccc23)c(=O)[nH]1 (centres unmarked) [Compound 52]	–	< 100 nM	–
Cc1cc(C)c(CNC(=O)c2c(C)n(C(C)C3CCN(CC(C)(F)F)C(C)C3)c3ccccc23)c(=O)[nH]1 (centres unmarked) [Compound 49]	100 to 1000 nM	–	–
COc1cc(C)[nH]c(=O)c1CNC(=O)c1c(C)n(C(C)C2CCN(C(C)=O)C(CC(F)(F)F)C2)c2ccccc12 (centres unmarked) [Compound 81]	–	< 100 nM	–
CCC1CC(C(C)n2c(C)c(C(=O)NCc3c(OC)cc(C)[nH]c3=O)c3ccccc32)CCN1CC(F)F (centres unmarked) [Compound 63]	–	–	IC50 (PRC2 containing wt EZH2; [2]): < 100 nM
COc1cc(C)[nH]c(=O)c1CNC(=O)c1c(C)n(C(C)C2CCN(C(C)=O)C(CC(F)(F)F)C2)c2ccccc12 (centres unmarked) [Compound 80]	–	< 100 nM	–
COC(=O)N1CCC(C(C)n2c(C)c(C(=O)NCc3c(OC)cc(C)[nH]c3=O)c3ccccc32)CC1C (centres unmarked) [Compound 79]	–	< 100 nM	–
CCC1CC(C(C)n2c(C)c(C(=O)NCc3c(C)cc(C)[nH]c3=O)c3ccccc32)CCN1CC(F)F (centres unmarked) [Compound 67]	< 100 nM	–	–
COc1cc(C)[nH]c(=O)c1CNC(=O)c1c(C)n(C(C)C2CCN(CC(C)(F)F)C(C)C2)c2ccccc12 (centres unmarked) [Compound 64]	< 100 nM	–	–
Cc1cc(C)c(CNC(=O)c2c(C)n(C(C)C3CCN(CC(C)(F)F)C(C)C3)c3ccccc23)c(=O)[nH]1 (centres unmarked) [Compound 48]	100 to 1000 nM	–	–
Cc1cc(C)c(CNC(=O)c2c(C)n(C(C)C3CCNC(CC(F)(F)F)C3)c3ccccc23)c(=O)[nH]1 (centres unmarked) [Compound 85]	–	–	IC50 (PRC2 containing wt EZH2; [2]): < 100 nM
COc1cc(C)[nH]c(=O)c1CNC(=O)c1c(C)n(C(C)C2CCNC(c3cccc(F)c3)C2)c2ccccc12 (centres unmarked) [Compound 51]	–	< 100 nM	–
Cc1cc(C)c(CNC(=O)c2c(C)n(C(C)C3CCNC(CC(F)(F)F)C3)c3ccccc23)c(=O)[nH]1 (centres unmarked) [Compound 86]	–	–	IC50 (PRC2 containing wt EZH2; [2]): < 100 nM
CCS(=O)(=O)N1CCC(C(C)n2c(C)c(C(=O)NCc3c(OC)cc(C)[nH]c3=O)c3ccccc32)CC1C (centres unmarked) [Compound 94]	100 to 1000 nM	–	–
CCC1CC(C(C)n2c(C)c(C(=O)NCc3c(OC)cc(C)[nH]c3=O)c3ccccc32)CCN1CC(F)F (centres unmarked) [Compound 60]	–	–	IC50 (PRC2 containing wt EZH2; [2]): < 100 nM
CCC1CC(C(C)n2c(C)c(C(=O)NCc3c(OC)cc(C)[nH]c3=O)c3ccccc32)CCN1CC(F)F (centres unmarked) [Compound 54]	< 100 nM	–	–
Cc1cc(C)c(CNC(=O)c2c(C)n(C(C)C3CCN(C)C(c4cccc(F)c4)C3)c3ccccc23)c(=O)[nH]1 (centres unmarked) [Compound 61]	–	< 100 nM	–
Cc1cc(C)c(CNC(=O)c2c(C)n(C(C)C3CCNC(CC(F)(F)F)C3)c3ccccc23)c(=O)[nH]1 (centres unmarked) [Compound 83]	< 100 nM	–	–
Cc1cc(C)c(CNC(=O)c2c(C)n(C(C)C3CCN(C)C(c4cccc(F)c4)C3)c3ccccc23)c(=O)[nH]1 (centres unmarked) [Compound 56]	–	< 100 nM	–
COc1cc(C)[nH]c(=O)c1CNC(=O)c1c(C)n(C(C)C2CCN(C)C(c3cccc(F)c3)C2)c2ccccc12 (centres unmarked) [Compound 55]	–	< 100 nM	–
